Data on eleven molecules can be found in patent publication US4640916A, “1,4-benzothiazine derivatives, compositions containing them and method of use” (priority 1984, dated 1987).

Experiment [1] relates to contraction depending on intracellular Ca^++. In words: Intracellular Ca++ antagonism: inhibition of phenylephrine contraction of aorta strip in Ca++-free EGTA solution. Particulars: Oryctolagus cuniculus; compound 10^-6 M; phenylephrine 10^-6 M; Ca++ 0 mM, EGTA 5 mM; read-out: Inhibitory percent (contraction depending on intracellular Ca++). The format is cell-based, rabbit. The protocol: A spiral strip of aorta of a rabbit (2-3 mm width, about 3 cm length) was allowed to equilibrate by hanging under 2 g force in a Krebs-Henseleit solution. The solution was saturated with a mixture gas 97% O2 --3% CO2, which was warmed to 37° C. The strip was moved into another Krebs-Henseleit solution containing Ca^++ OmM and EGTA 5 mM. Five minutes later, phenylephrine (10^-6 M) was added on the solution. The resulting contraction of the strip was made as the index of the contraction depending on intracellular Ca^++.

The subject of experiment [2] is contraction of the aorta strip caused by serotonin (5--HT). Nature of the experiment: Vasodilating action: inhibition of contraction of rabbit aorta strip caused by serotonin (5-HT). The format is cell-based. The conditions noted are these: Oryctolagus cuniculus, compound 10^-5 M, 5-HT 10^-6 M, 15 min pretreatment, read-out: Inhibitory percent against contraction, 5-HT. The procedure:
(§1) A spiral strip of aorta of a rabbit (2-3 mm width, about 3 cm length) was allowed to equilibrate by hanging under 2 g force in a Krebs-Henseleit solution. The solution was saturated with a mixture gas of 97% O2 --3% CO2 which was warmed to 37° C. Inhibitory actions of compounds (10^-5 M) of this invention against contraction of the aorta strip caused by KCl (60 mM), norepinephrine (NE) (10^-6 M) or serotonin (5--HT) (10^-6 M), by treating the strip with a compound of this invention 15 minutes before the test, are shown in Table 1 as inhibitory percent.

Experiment [3] deals with contraction of the aorta strip caused by norepinephrine (NE). Nature of the experiment: Vasodilating action: inhibition of contraction of rabbit aorta strip caused by norepinephrine (NE). The conditions noted are these: Oryctolagus cuniculus, compound 10^-5 M, NE 10^-6 M, 15 min pretreatment, read-out: Inhibitory percent against contraction, NE. It is filed as cell-based. The protocol:
as §1

For experiment [4], the system named is contraction of the aorta strip caused by KCl. Nature of the experiment: Vasodilating action: inhibition of contraction of rabbit aorta strip caused by KCl. The format is cell-based. The conditions noted are these: Oryctolagus cuniculus, compound 10^-5 M, KCl 60 mM, 15 min pretreatment, read-out: Inhibitory percent against contraction, KCl. The protocol: as §1

Experiment [5] deals with spontaneously hypertensive rats. In words: Antihypertensive action in spontaneously hypertensive rats (tail-cuff). It is filed as in vivo. Particulars: 1 h after administration. The procedure:
Male 12 to 13 weeks old spontaneously hypertensive rats with about 200 mm Hg of blood pressure were used in groups of 3 individuals. Mean arterial blood pressures of these animals were measured by the tail-cuff method, then the animals were orally given 3-60 mg/kg of each test compound of this invention as 2 ml of its suspension in gum arabic. Blood pressure measurements were made again one hour after administration of each test compound.

The test system of another experiment is intracellular Ca^++. The conditions noted are these: (2) Ca++ from intracellular store site; (3) Ca++ through receptor-dependent channel; cited from earlier work.
The subject of experiment [6] is ischemic seizure induced by bilateral carotid artery occlusion. Nature of the experiment: Effect on the ischemic seizure induced by bilateral carotid artery occlusion in spontaneously hypertensive rats. The format is in vivo. Particulars: p.o.; for Time toward ischemic seizure: 1 h before occlusion; for Effect on time of the beginning of the ischemic seizure (in words): Ex. 48 at 1, 3 and 10 mg/kg, Ex. 46 at 0.3, 1 and 3 mg/kg. The protocol:
Male spontaneously hypertensive rats, 20 to 22 week old, were orally given the compounds or tap water at a volume of 5 ml/kg. After 1 hour, the carotid artery was bilaterally occluded by use of silk thread under anesthesia with sodium pentobarbital (50 mg/kg, i.p.). The length of time until the ischemic seizure such as convulsion and jumping was observed was measured, immediately after the occlusion of carotid artery.

The test system of experiment [7] is ischemia-reperfusion-induced ventricular arrythmia in rats. Nature of the experiment: Effect on the ischemia-reperfusion-induced ventricular arrhythmia in rats. It is filed as in vivo, Sprague-Dawley rats. Particulars: p.o.; for Incidence of cardiac arrest (CA), rats affected/rats used / Incidence of ventricular fibrillation (VF), rats affected/rats used / Incidence of ventricular tachycardia (VT), rats affected/rats used: 10 min after reperfusion; for Effect on incidences of VT, VF and CA (in words): Ex. 48 at 1, 3 and 10 mg/kg, Ex. 46 at 0.3, 1, 3 and 10 mg/kg. The procedure:
Male Sprague-Dawley rats, 9 to 10 week old, were orally given the compounds or tap water at a volume of 5 ml/kg. After 1 hour, rats were anesthetized with sodium pentobarbital (50 mg/kg, i.p.), and left anterior descending coronary artery was occluded for 5 min. with a silk thread under ventilation. The incidences of ventricular tachycardia (VT), ventricular fibrilation (VF) and cardiac arrest (CA) occurred for 10 min. after reperfusion of the blood were calculated.

For experiment [8], the system named is ischemic acute renal failure in rats. Nature of the experiment: Effect on the ischemic acute renal failure in rats. The format is in vivo, Sprague-Dawley rats. Particulars: for Plasma urea nitrogen (BUN): p.o., 24 h after reperfusion; for Effect on the increase in BUN (in words): Ex. 48 at 10 mg/kg, Ex. 46 at 1 and 3 mg/kg. The procedure:
The left renal artery of male Sprague-Dawley rats, 6 week old, was clamped for 1 hour under anesthesia with sodium pentobarbital (50 mg/kg, i.p.). The compounds or water was orally given 1 hour before the occlusion. The compounds were again given 20 hour after the reperfusion of the blood. Twenty four hour after the reperfusion, the blood was obtained from the abdominal aorta under anesthesia for measurement of plasma urea nitrogen (BUN).

Where [9] appears, read: 1 mg/kg, control 139 ± 9 (Ex. 48), 150 ± 6 (Ex. 46).
Where [10] appears, read: 3 mg/kg, control 152 ± 14 (Ex. 48), 150 ± 6 (Ex. 46).
[11] abbreviates: 3 mg/kg, control 20.3 ± 0.6 (Ex. 48), 25.1 ± 0.8 (Ex. 46).

Structures can show the parent of a compound that is named as a salt. Where two headings read alike, the source gives them in different places.

Regarding `Cc1cccc2c1NC(=O)C(CCCN1CCN(c3ccc(Cl)cc3)CC1)S2` (stereo not drawn) [Example 15], in experiment [1], the inhibition at 1 µM is 30%. The inhibition at 10 µM in experiment [2] was 20%; in [3], 100%; in experiment [4], 40%.

For `Cc1cc2c(cc1C)SC(CCCN1CCN(c3ccc(F)cc3)CC1)C(=O)N2` (stereo not drawn) [Example 1, 2-[3-[4-(4-fluorophenyl)-1-piperazinyl]propyl]-6,7-dimethyl-2H-1,4-benzothiazin-3(4H)-one], the “Antihypertensive effect (difference of blood pressure before and after medication)” value in [5] (30 mg/Kg oral) is 35 ΔmmHg. Further, the inhibition at 1 µM in experiment [1] turned out to be 66%. Also, the inhibition at 10 µM in [3] (0.25 h) worked out at 100%; in experiment [4], 50%.

Take `COC(=O)C1=C(C)NC(C)=C(C(=O)OC)C1c1ccccc1[N+](=O)[O-]` [nifedipine]: the “Action on intracellular Ca++ (in words)” value with intracellular Ca^++ is “hardly acts on (2) and (3)”.

With `Cc1cccc2c1NC(=O)C(CCCN1CCN(c3ccc(F)cc3)CC1)S2` (stereo not drawn) [Example 12, 2-[3-[4-(4-fluorophenyl)-1-piperazinyl]propyl]-5-methyl-2H-1,4-benzothiazin-3(4H)-one], in [5] (60 mg/Kg oral), the “Antihypertensive effect (difference of blood pressure before and after medication)” value was 49 ΔmmHg. The inhibition at 1 µM in experiment [1] came out at 100%. Also, the inhibition at 10 µM in experiment [2] was 96%; in experiment [3] (0.25 h), 100%; in experiment [4] it was 41%.

Regarding `COc1ccccc1N1CCN(CCCC2Sc3cc(C)cc(C)c3NC2=O)CC1` (stereo not drawn) [Example 22], the “Antihypertensive effect (difference of blood pressure before and after medication)” value in [5] (30 mg/Kg oral) is 39 ΔmmHg. Also, the inhibition at 1 µM in experiment [1] stood at 100%. Also, the results for the inhibition at 10 µM in experiment [2], in experiment [3] and in [4] were 15%, 100% and 62%, respectively.

With `Cc1cccc2c1NC(=O)C(CCCN1CCN(c3cccc(Cl)c3)CC1)S2` (stereo not drawn) [Example 14], the “Antihypertensive effect (difference of blood pressure before and after medication)” value in experiment [5] (30 mg/Kg oral) is on record as 26 ΔmmHg. In addition, in experiment [1], the inhibition at 1 µM is 100%. The inhibition at 10 µM was found to be 100% in experiment [3] and 50% in experiment [4].

Consider `O=C1Nc2cc3c(cc2SC1CCCN1CCN(c2ccc(F)cc2)CC1)CCC3` (stereo not drawn) [Example 46, 6,7-cyclopenteno-2-[3-[4-(4-fluorophenyl)-1-piperazinyl]propyl]-2H-1,4-benzothiazin-3(4H)-one.hydrochloride], for which the “Time toward ischemic seizure” value is 167 ± 13 min in [6] (0.1 mg/kg, control 153 ± 8); 190 ± 11 min in [6] (0.3 mg/kg, control 143 ± 7); 217 ± 11 min in [6] (setting [9]); 279 ± 18 min in experiment [6] (setting [10]). The “Effect on time of the beginning of the ischemic seizure (in words)” value in experiment [6] was “prolonged the time of the beginning of the ischematic seizure in a dose-dependent manner”. In addition, the “Antihypertensive effect (difference of blood pressure before and after medication)” value in experiment [5] (3 mg/Kg oral) is recorded as 33 ΔmmHg. For the same molecule, the “Incidence of cardiac arrest (CA), rats affected/rats used” value in experiment [7] (0.3 mg/kg) is listed as 9/19; in experiment [7] (1 mg/kg), 0/12; in experiment [7] (3 mg/kg), 0/12; in experiment [7] (10 mg/kg), 0/4. Besides, the “Incidence of ventricular fibrillation (VF), rats affected/rats used” value in experiment [7] (0.3 mg/kg) is 9/19; in [7] (1 mg/kg), 5/12; in experiment [7] (3 mg/kg) it was 2/12; in experiment [7] (10 mg/kg), 1/4. Further, the “Incidence of ventricular tachycardia (VT), rats affected/rats used” value in experiment [7] (0.3 mg/kg) was 12/19; in experiment [7] (1 mg/kg), 7/12; in experiment [7] (3 mg/kg), 5/12; in experiment [7] (10 mg/kg), 1/4. Moreover, in experiment [7], the “Effect on incidences of VT, VF and CA (in words)” value was “inhibited the incidences of VT, VF and CA in a dose-dependent manner”. Also, the “Plasma urea nitrogen (BUN)” value in [8] (1 mg/kg, control 20.4 ± 0.4) stood at 18.0 ± 0.7 mg/dL; in [8] (setting [11]), 19.6 ± 0.8 mg/dL. In addition, the “Effect on the increase in BUN (in words)” value in [8] is “inhibited the increase in BUN”.

In the case of `COc1ccccc1N1CCN(CCCC2Sc3ccccc3NC2=O)CC1` (stereo not drawn) [Example 25, 2-[3-[4-(2-methoxyphenyl)-1-piperazinyl]propyl]-2H-1,4-benzothiazin-3(4H)-one], the “Antihypertensive effect (difference of blood pressure before and after medication)” value in experiment [5] (30 mg/Kg oral) was 66 ΔmmHg. The results for the inhibition at 10 µM in [2], in experiment [3] (0.25 h) and in experiment [4] were 84%, 100% and 10%, respectively.

With `COc1ccc2c(c1)SC(CCCN1CCN(c3ccccc3OC)CC1)C(=O)N2` (stereo not drawn) [Example 6], in [5] (10 mg/Kg oral), the “Antihypertensive effect (difference of blood pressure before and after medication)” value was 64 ΔmmHg. Further, the inhibition at 10 µM came to 91% in [2], 100% in [3] and 26% in experiment [4].

Consider `Cc1cccc2c1NC(=O)C(CCCN1CCN(c3ccc(F)cc3)CC1)S2` (stereo not drawn) [Example 48, 2-[3-[4-(4-fluorophenyl)-1-piperazinyl]propyl]-5-methyl-2H-1,4-benzothiazin-3(4H)-one], for which the “Time toward ischemic seizure” value in experiment [6] (setting [9]) worked out at 167 ± 8 min; in [6] (setting [10]), 214 ± 22 min; in [6] (10 mg/kg, control 132 ± 14) it was 275 ± 22 min. Further, the “Effect on time of the beginning of the ischemic seizure (in words)” value in [6] is “prolonged the time of the beginning of the ischematic seizure in a dose-dependent manner”. In addition, the “Incidence of cardiac arrest (CA), rats affected/rats used” value in [7] (1 mg/kg) is on record as 3/10; in experiment [7] (3 mg/kg), 1/9; in experiment [7] (10 mg/kg), 0/6. Also, the “Incidence of ventricular fibrillation (VF), rats affected/rats used” value was 5/10 in [7] (1 mg/kg), 3/9 in [7] (3 mg/kg) and 1/6 in [7] (10 mg/kg). Besides, the “Incidence of ventricular tachycardia (VT), rats affected/rats used” value was 7/10 in [7] (1 mg/kg), 4/9 in experiment [7] (3 mg/kg) and 1/6 in [7] (10 mg/kg). Besides, the “Effect on incidences of VT, VF and CA (in words)” value in experiment [7] is “inhibited the incidences of VT, VF and CA in a dose-dependent manner”. Also, the “Plasma urea nitrogen (BUN)” value was 18.9 ± 0.6 mg/dL in experiment [8] (setting [11]) and 16.9 ± 0.7 mg/dL in experiment [8] (10 mg/kg, control 22.8 ± 1.0). In addition, the “Effect on the increase in BUN (in words)” value in experiment [8] is “inhibited the increase in BUN”.

With `Cc1cc(C)c2c(c1)SC(CCCN1CCN(c3ccc(F)cc3)CC1)C(=O)N2` (stereo not drawn) [Example 11], in [5] (30 mg/Kg oral), the “Antihypertensive effect (difference of blood pressure before and after medication)” value is given as 49 ΔmmHg. In addition, the inhibition at 1 µM in [1] turned out to be 97%. For the same molecule, the inhibition at 10 µM in experiment [2] worked out at 67%; in experiment [3], 95%; in [4], 70%.
